Legend:
Format in all cases: in vivo
[1] = tested on: Japanese ribbon waparo (Sagittaria pygmaea); test: Test Example 3, paddy field pot, application to irrigated water; conditions: applied at primary leaf stage, 13th to 17th day after application, read-out: Growth inhibition rate (%) Japanese ribbon waparo
Excerpt: (§1) Paddy field soil was put into a 1/1,000,000 hectare pot, and seeds of barnyardgrass (Echinochloa oryzicola vasing.) and Japanese bulrush (Scirpus juncoides) were sown and lightly covered with soil. Then, pot was left to stand in a greenhouse in a state irrigated to a water depth of from 0.5 to 1 cm, and next day or two days later, tubers of Japanese ribbon waparo (Sagittaria pygmaea) were planted. Then, the irrigated water depth was maintained to be from 3 to 4 cm, and when barnyardgrass and Japanese bulrush reached 0.5 leaf stage, and Japanese ribbon waparo reached primary leaf stage, a water diluted solution of a wettable powder or an emulsifiable concentrate of the compound of the present invention prepared in accordance with a conventional preparation method, was uniformly dropwise applied by a pipette so that the amount of active ingredients would be a prescribed amount. Further, paddy field soil was put into a 1/1,000,000 pot, followed by soil puddling to an irrigated water depth of from 3 to 4 cm. Next day, rice (Oryza sativa L.) (var.: Nihonbare) of two leaf stage was transplanted in a transplantation depth of 3 cm. On the 4th day after transplantation, the compound of the present invention was applied in the same manner as described above.
(§2) On the 13th to 17th day after application, the state of growth of barnyardgrass, Japanese bulrush and Japanese ribbon waparo was visually observed, and on the 20th to 23rd day after application, the state of growth of rice was visually observed, and the herbicidal effect was evaluated by a growth inhibition rate (%) of 0 (equivalent to the non-treated area) to 100% (complete kill).

[2] = tested on: barnyardgrass (Echinochloa oryzicola vasing.); test: as above; conditions: applied at 0.5 leaf stage, 13th to 17th day after application, read-out: Growth inhibition rate (%) barnyard grass
Excerpt: as §1, §2

[3] = tested on: Japanese bulrush (Scirpus juncoides); test: as above; conditions: Schoenoplectiella juncoides, applied at 0.5 leaf stage, 13th to 17th day after application, read-out: Growth inhibition rate (%) Japanese bulrush
Excerpt: as §1, §2

[4] = tested on: redroot pigweed (Amaranthus retroflexus L.); test: Test Example 2, soil application on the day after sowing; conditions: 21st to 22nd day after application, visual, read-out: Growth inhibition rate (%) Redroot pigweed
Excerpt: (§3) Upland field soil was put into a 1/170,000 hectare pot, and seeds of various plants (barnyardgrass (Echinochloa crus-galli L.), crabgrass (Digitaria sanquinalis L.), green foxtail (Setaria viridis L.), redroot pigweed (Amaranthus retroflexus L.), prickly sida (Sida spinosa L.), velvetleaf (Abutilon theophrasti MEDIC.), rice (Oryza sativa L.), corn (Zea mays L.), soybean (Glycine max Merr.)) and wheat (Triticum spp.) were sown. On the day after sowing, wettable powders or emulsifiable concentrates of the compounds of the present invention prepared in accordance with a conventional preparation method, were weighed so that the active ingredients became the prescribed amounts, and diluted with water in an amount corresponding to 500 liter per 1 hectare, followed by soil application with a small sprayer.
(§4) On the 21st to 22nd day after the application, the state of growth of the respective plants was visually observed, and the herbicidal effect was evaluated by a growth inhibition rate (%) of from 0 (equivalent to the non-treated area) to 100% (complete kill).

[5] = tested on: green foxtail (Setaria viridis L.); test: as above; conditions: 21st to 22nd day after application, visual, read-out: Growth inhibition rate (%) Green foxtail
Excerpt: as §3, §4

[6] = tested on: soybean (Glycine max Merr.); test: as above; conditions: 21st to 22nd day after application, visual, read-out: Growth inhibition rate (%) Soybean
Excerpt: as §3, §4

[7] = tested on: barnyardgrass (Echinochloa crus-galli L.); test: as above; conditions: 21st to 22nd day after application, visual, read-out: Growth inhibition rate (%) Barnyardgrass
Excerpt: as §3, §4

[8] = tested on: corn (Zea mays L.); test: as above; conditions: 21st to 22nd day after application, visual, read-out: Growth inhibition rate (%) Corn
Excerpt: as §3, §4

[9] = tested on: crabgrass (Digitaria sanquinalis L.); test: as above; conditions: 21st to 22nd day after application, visual, read-out: Growth inhibition rate (%) Crabgrass
Excerpt: as §3, §4

[10] = tested on: velvetleaf (Abutilon theophrasti MEDIC.); test: as above; conditions: 21st to 22nd day after application, visual, read-out: Growth inhibition rate (%) Velvetleaf
Excerpt: as §3, §4

[11] = tested on: prickly sida (Sida spinosa L.); test: as above; conditions: 21st to 22nd day after application, visual, read-out: Growth inhibition rate (%) Prickly sida
Excerpt: as §3, §4

[12] = tested on: rice (Oryza sativa L.); test: as above; conditions: 21st to 22nd day after application, visual, read-out: Growth inhibition rate (%) Rice
Excerpt: as §3, §4

[13] = tested on: wheat (Triticum spp.); test: as above; conditions: 21st to 22nd day after application, visual, read-out: Growth inhibition rate (%) Wheat
Excerpt: as §3, §4

[14] = tested on: rice (Oryza sativa L.) (var.: Nihonbare); test: Test Example 3, paddy field pot, transplanted rice; conditions: applied 4th day after transplantation, 20th to 23rd day after application, read-out: Growth inhibition rate (%) Rice
Excerpt: as §1, §2

[15] = tested on: redroot pigweed (Amaranthus retroflexus L.); test: Test Example 1, foliar treatment in upland pots; conditions: 20th to 22nd day after application, visual, read-out: Growth inhibition rate (%) Redroot pigweed
Excerpt: (§5) Upland field soil was put into a 1/170,000 hectare pot, and seeds of various plants were sown. When the respective plants reached predetermined leaf stage ((1) barnyardgrass (Echinochloa crus-galli L.): 1.2 to 3.0 leaf stage, (2) crabgrass (Digitaria sanguinalis L.): 1.0 to 3.0 leaf stage, (3) green foxtail (Setaria viridis L.): 1.5 to 3.0 leaf stage, (4) redroot pigweed (Amaranthus retroflexus L.): cotyledon stage to 1.5 leaf stage, (5) prickly sida (Sida spinosa L.): cotyledon stage to 2.0 leaf stage, (6) velvetleaf (Abutilon theophrasti MEDIC.): cotyledon stage to 1.3 leaf stage, (7) rice (Oryza sativa L.): 1.2 to 2.5 leaf stage, (8) corn (Zea mays L.): 2.0 to 3.3 leaf stage, (9) soybean (Glycine max Merr.): primary leaf stage to 0.3 leaf stage) and wheat (Triticum spp.): 2.0 to 3.0 leaf stage, wettable powders or emulsifiable concentrates of the compounds of the present invention prepared in accordance with a conventional preparation method, were weighed so that the active ingredients became the prescribed amounts, and diluted with water in an amount corresponding to 500 liter per 1 hectare (containing 0.1 vol % of an agricultural spreader (“KUSARINOH”, manufactured by NIHON NOHYAKU CO., LTD.)). The spray solutions thus prepared were applied for foliar treatment by a small sprayer.
(§6) On the 20th to 22nd day after application, the state of growth of the respective plants was visually observed, and the herbicidal effect was evaluated by a growth inhibition rate (%) of 0 (equivalent to the non-treated area) to 100% (complete kill).

[16] = tested on: green foxtail (Setaria viridis L.); test: Test Example 1, foliar treatment in upland pots; conditions: 20th to 22nd day after application, visual, read-out: Growth inhibition rate (%) Green foxtail
Excerpt: as §5, §6

[17] = tested on: soybean (Glycine max Merr.); test: Test Example 1, foliar treatment in upland pots; conditions: 20th to 22nd day after application, visual, read-out: Growth inhibition rate (%) Soybean
Excerpt: as §5, §6

[18] = tested on: barnyardgrass (Echinochloa crus-galli L.); test: Test Example 1, foliar treatment in upland pots; conditions: 20th to 22nd day after application, visual, read-out: Growth inhibition rate (%) Barnyardgrass
Excerpt: as §5, §6

[19] = tested on: velvetleaf (Abutilon theophrasti MEDIC.); test: Test Example 1, foliar treatment in upland pots; conditions: 20th to 22nd day after application, visual, read-out: Growth inhibition rate (%) Velvetleaf
Excerpt: as §5, §6

[20] = tested on: crabgrass (Digitaria sanguinalis L.); test: Test Example 1, foliar treatment in upland pots; conditions: 20th to 22nd day after application, visual, read-out: Growth inhibition rate (%) Crabgrass
Excerpt: as §5, §6

[21] = tested on: rice (Oryza sativa L.); test: Test Example 1, foliar treatment in upland pots; conditions: 20th to 22nd day after application, visual, read-out: Growth inhibition rate (%) Rice
Excerpt: as §5, §6

[22] = tested on: wheat (Triticum spp.); test: Test Example 1, foliar treatment in upland pots; conditions: 20th to 22nd day after application, visual, read-out: Growth inhibition rate (%) Wheat
Excerpt: as §5, §6

[23] = tested on: corn (Zea mays L.); test: Test Example 1, foliar treatment in upland pots; conditions: 20th to 22nd day after application, visual, read-out: Growth inhibition rate (%) Corn
Excerpt: as §5, §6

[24] = tested on: prickly sida (Sida spinosa L.); test: Test Example 1, foliar treatment in upland pots; conditions: 20th to 22nd day after application, visual, read-out: Growth inhibition rate (%) Prickly sida
Excerpt: as §5, §6

CCOCc1c(S(C)(=O)=O)ccc(C(=O)c2cnn(C)c2OC(C)OC(=O)OC)c1C (stereo not shown) [Compound No. 1-1, 1-(4-(3-(Ethoxymethyl)-2-methyl-4-(methylsulfonyl)benzoyl)-1-methyl-1H-pyrazol-5-yloxy)ethyl methyl carbonate]
inhibition at 63 g/ha [1]: 90% | inhibition at 63 g/ha [2]: 100% | inhibition at 63 g/ha [3]: 70% | inhibition at 250 g/ha [4]: 90% | inhibition at 250 g/ha [5]: 98% | inhibition at 250 g/ha [6]: 20% | inhibition at 250 g/ha [7]: 100% | inhibition at 250 g/ha [8]: 10% | inhibition at 250 g/ha [9]: 100% | inhibition at 250 g/ha [10]: 98% | inhibition at 250 g/ha [11]: 90% | inhibition at 250 g/ha [12]: 95% | inhibition at 250 g/ha [13]: 20% | inhibition at 63 g/ha [14]: 10% | inhibition at 7 g/ha [15]: 60% | inhibition at 7 g/ha [16]: 60% | inhibition at 7 g/ha [17]: 70% | inhibition at 7 g/ha [18]: 95% | inhibition at 7 g/ha [19]: 50% | inhibition at 7 g/ha [20]: 90% | inhibition at 7 g/ha [21]: 20% | inhibition at 7 g/ha [22]: 0%

COCc1c(S(C)(=O)=O)ccc(C(=O)c2cnn(C)c2OC(C)OC(=O)OC)c1C (stereo not shown) [Compound No. 1-3, 1-(4-(3-(Methoxymethyl)-2-methyl-4-(methylsulfonyl)benzoyl)-1-methyl-1H-pyrazol-5-yloxy)ethyl methyl carbonate]
inhibition at 63 g/ha [1]: 70% | inhibition at 63 g/ha [2]: 100% | inhibition at 63 g/ha [3]: 70% | inhibition at 250 g/ha [4]: 98% | inhibition at 250 g/ha [5]: 98% | inhibition at 250 g/ha [6]: 60% | inhibition at 250 g/ha [7]: 98% | inhibition at 250 g/ha [8]: 20% | inhibition at 250 g/ha [9]: 98% | inhibition at 250 g/ha [10]: 100% | inhibition at 250 g/ha [11]: 95% | inhibition at 250 g/ha [12]: 98% | inhibition at 250 g/ha [13]: 10% | inhibition at 63 g/ha [14]: 40% | inhibition at 7 g/ha [15]: 80% | inhibition at 7 g/ha [16]: 80% | inhibition at 7 g/ha [17]: 70% | inhibition at 7 g/ha [18]: 90% | inhibition at 7 g/ha [19]: 75% | inhibition at 7 g/ha [20]: 95% | inhibition at 7 g/ha [21]: 60% | inhibition at 7 g/ha [22]: 0%

CCOCc1c(S(C)(=O)=O)ccc(C(=O)c2cnn(C)c2OC(C)OC(=O)OCC)c1C (stereo not shown) [Compound No. 1-4, 1-(4-(3-(Ethoxymethyl)-2-methyl-4-(methylsulfonyl)benzoyl)-1-methyl-1H-pyrazol-5-yloxy)ethyl ethyl carbonate]
inhibition at 63 g/ha [1]: 70% | inhibition at 63 g/ha [2]: 100% | inhibition at 63 g/ha [3]: 60% | inhibition at 250 g/ha [4]: 98% | inhibition at 250 g/ha [5]: 80% | inhibition at 250 g/ha [6]: 40% | inhibition at 250 g/ha [7]: 98% | inhibition at 250 g/ha [8]: 0% | inhibition at 250 g/ha [9]: 80% | inhibition at 250 g/ha [10]: 100% | inhibition at 250 g/ha [11]: 90% | inhibition at 250 g/ha [12]: 60% | inhibition at 250 g/ha [13]: 0% | inhibition at 63 g/ha [14]: 20% | inhibition at 7 g/ha [15]: 80% | inhibition at 7 g/ha [16]: 75% | inhibition at 7 g/ha [17]: 80% | inhibition at 7 g/ha [18]: 95% | inhibition at 7 g/ha [23]: 0% | inhibition at 7 g/ha [19]: 80% | inhibition at 7 g/ha [20]: 95% | inhibition at 7 g/ha [22]: 0%

CCn1ncc(C(=O)c2ccc(S(C)(=O)=O)c(C(=O)OC)c2C)c1OC(C)OC(=O)OC (stereo not shown) [Compound No. 2-2, Methyl 3-(5-(1-(methoxycarbonyloxy)ethoxy)-1-ethyl-1H-pyrazole-4-carbonyl)-2-methyl-6-(methylsulfonyl)benzoate]
inhibition at 63 g/ha [1]: 90% | inhibition at 63 g/ha [2]: 100% | inhibition at 63 g/ha [3]: 80% | inhibition at 63 g/ha [14]: 80% | inhibition at 7 g/ha [15]: 98% | inhibition at 7 g/ha [16]: 80% | inhibition at 7 g/ha [18]: 98% | inhibition at 7 g/ha [23]: 0% | inhibition at 7 g/ha [19]: 95% | inhibition at 7 g/ha [20]: 80% | inhibition at 7 g/ha [24]: 70% | inhibition at 7 g/ha [21]: 50% | inhibition at 7 g/ha [22]: 0%

— patent US8466089B2, “Pyrazole compounds, process for their production and herbicides containing them” (Ishihara Sangyo Kaisha, Ltd., priority 2008, dated 2013)
